In patent publication US20200239938A1 (priority 2017, published 2020):

Assays:
Assay type in all cases: cell-based
[1] = tested on: Campylobacter jejuni DSM-24306; assay: drop plate enumeration of viable cells on Columbia Blood Agar; set-up: key: +++: bacterial lawn; ++: few colonies; +: single colonies; −: no growth observable
[2] = tested on: Salmonella enterica subsp. enterica DSM-5569; assay: drop plate enumeration of viable cells on tryptic soy agar; set-up: key to drop plate growth: +++: bacterial lawn; ++: few colonies; +: single colonies; −: no growth observable; settings: for viable cells at the start of cultivation: 0 h
Text: (§1) The pathogens of interest Salmonella enterica subsp. enterica and Campylobacter jejuni were cultivated in microtiter plate scale in order to enable the simultaneous application of four different starting culture concentrations and treatments (Table 3). For analysis, samples for DNA extraction were taken after different times of cultivation and applied for qPCR enumeration of Salmonella enterica subsp. enterica and Campylobacter jejuni specific genes. As the qPCR assay is designed to record both viable and non-viable cells, an additional viability check was performed for AB treated cultures and the untreated controls.
(§2) In order to evaluate the effect of bactericidic effect Kanamycin, drop plate tests were performed to determine the number of viable cells. Three dilutions of a ten-fold series of the high (dilutions 10^−3, 10^−4 and 10^−5) and low (dilutions 10′, 10^−2 and 10^−3) inoculated culture after 0 and 6 h were plated in triplicates on CBA (Campylobacter) or tryptic soy agar (TSA) (Salmonella) by dropping 10 μl on the agar. The plates were evaluated regarding growth at the distinct log dilutions after 24 h incubation (41° C. microaerophilic for Campylobacter, 37° C. aerobic for Salmonella).

[3] = tested on: Campylobacter jejuni DSM-24306; assay: microtiter plate cultivation assay with qPCR enumeration of the Cj0414 target gene (growth curves, growth rate); settings: Butyrate 25 mM; for growth rate: cultivation period of 0 to 7 h, very high to low inoculum, GutCare 10% (v/v)
Text: as §1
For Campylobacter jejuni experiments the DSMZ strain DSM-24306 was applied. The inoculum culture was produced by a first overnight cultivation on Columbia Blood Agar (CBA) followed by an overnight cultivation in Mueller-Hinton broth (MH). All cultivations took place under microaerophilic conditions (5% O2, 10% CO2, and […]) at 41° C.
The actual assay was carried out in microtiter plate format containing a total volume of 200 μl. Following media for the different treatment conditions were prepared according to Table 4. For the probiotic treatments (Ecobiol and GutCare), sterile filtrated supernatant of an overnight culture (=cell-free) or non-sterile filtrated, cell-containing supernatant of the same overnight culture was applied.
For C. jejuni all treatments were prepared in MH medium and for S. enterica in LBG respectively. Strains were cultivated under the conditions described in 2.1. Inoculated medium without any treatment served as an untreated control.
For each intervention and for the untreated control, following inoculum concentrations given in starting quantity of the Salmonella enterica subsp. enterica and Campylobacter jejuni specific target gene per ml culture were applied for the start of the assay:
From each concentration and treatment, enough wells were prepared to extract DNA from three well replicates per time point and treatment. For Campylobacter, DNA was extracted after 0, 7, 24 and 48 h. For Salmonella, 0, 2, 4, 6, 24 and 30 h of cultivation were chosen. […]
(§3) For enumeration of Salmonella or Campylobacter, primers and probes binding in conserved genetic regions, specific for each species were applied in qPCR assays with a total volume of 30 μl and a DNA eluate volume of 10 μl. […] Absolute quantification of targets was performed under consolidation of standard curves that were carried with each run. Using the standard curves, the starting quantity (SQ) of the specific target was calculated for each sample. […]
To outline the effect of each treatment, the difference of growth rates between untreated and treated cultures was calculated for each starting inoculum concentration as following: […]

[4] = tested on: Salmonella enterica subsp. enterica DSM-5569; assay: drop plate enumeration of viable cells on tryptic soy agar; set-up: key: +++: bacterial lawn; ++: few colonies; +: single colonies; −: no growth observable
[5] = tested on: Campylobacter jejuni DSM-24306; assay: drop plate enumeration of viable cells on Columbia Blood Agar; set-up: key to drop plate growth: +++: bacterial lawn; ++: few colonies; +: single colonies; −: no growth observable; settings: for viable cells at the start of cultivation: 0 h
Text: as §1, §2

[6] = tested on: Salmonella enterica subsp. enterica DSM-5569; assay: microtiter plate cultivation assay with qPCR enumeration of the hilA target gene (growth curves, growth rate)
Text: as §1, with “controls. […]” for “controls.”
For each intervention and for the untreated control, following inoculum concentrations given in starting quantity of the Salmonella enterica subsp. enterica and Campylobacter jejuni specific target gene per ml culture were applied for the start of the assay: […]
as §3

[7] = High concentrated, After 0 h, dilution 10^−6
[8] = High concentrated, After 0 h, dilution 10^−7
[9] = High concentrated, After 6 h, dilution 10^−6
[10] = High concentrated, After 6 h, dilution 10^−7
[11] = Low concentrated, After 0 h, dilution 10^−4
[12] = Low concentrated, After 0 h, dilution 10^−5
[13] = Low concentrated, After 6 h, dilution 10^−4
[14] = Low concentrated, After 6 h, dilution 10^−5
[15] = High concentrated, After 0 h, dilution 10^−5
[16] = High concentrated, After 6 h, dilution 10^−5
[17] = Low concentrated, After 0 h, dilution 10^−3
[18] = Low concentrated, After 6 h, dilution 10^−3

For `NC[C@H]1O[C@H](O[C@H]2[C@H](O)[C@@H](O[C@H]3O[C@H](CO)[C@@H](O)[C@H](N)[C@H]3O)[C@H](N)C[C@@H]2N)[C@H](O)[C@@H](O)[C@@H]1O` [Kanamycin], the drop plate growth [1, 7] was “+”, the drop plate growth [1, 8] was “−” and the drop plate growth [1, 9] was “−”. The drop plate growth [1, 10] was “−”, the drop plate growth [1, 11] was “++” and the drop plate growth [1, 12] was “+”. The drop plate growth [1, 13] was “−”, the drop plate growth [1, 14] was “−” and the drop plate growth [2, 15] was “+++”. For the same molecule, the drop plate growth [2, 16] was “−”, the drop plate growth [2, 17] was “+++” and the drop plate growth [2, 18] was “−”. For the same molecule, the “viable cells at the start of cultivation” value ([2]; high concentrated inoculum) was 6-7 log, the “viable cells at the start of cultivation” value ([2]; low concentrated inoculum) was 5 log and the growth rate ([3]; Kanamycin 50 μl/ml) was about 0.13. For the same molecule, the drop plate growth [4, 7] was “++”, the drop plate growth [4, 8] was “+” and the drop plate growth [4, 9] was “−”. The drop plate growth [4, 10] was “−”, the drop plate growth [4, 11] was “++” and the drop plate growth [4, 12] was “+”. For the same molecule, the drop plate growth [4, 13] was “−”, the drop plate growth [4, 14] was “−” and the drop plate growth [5, 15] was “++”. For the same molecule, the drop plate growth [5, 16] was “−”, the drop plate growth [5, 17] was “++” and the drop plate growth [5, 18] was “−”. The “viable cells at the start of cultivation” value ([5]; high concentrated inoculum) was 6-7 log and the “viable cells at the start of cultivation” value ([5]; low concentrated inoculum) was 5 log.
In the case of `CCCC(=O)[O-].[Na+]` [sodium butyrate, Sodium butyrate], the “difference of the growth rates (delta) from untreated control” value ([6]; 0 to 7 h, in relation to inoculum concentration (very high to low)) is reported as “effect is rather low for all concentrations”, the “growth curve (target starting quantity (SQ) per ml culture, qPCR)” value ([6]; all inoculum concentrations, LBG, 37° C. aerobic, Butyrate 25 mM, Ecobiol 10% (v/v), 0-30 h) is reported as “strong exponential growth during the first 7 h” and the “growth curve (target starting quantity (SQ) per ml culture, qPCR)” value ([3]; all inoculum concentrations, MH medium, 41° C. microaerophilic, GutCare (cell-free) 10% (v/v), Kanamycin 50 μl/ml, 0-48 h) is reported as “inhibitory effect”. For the same molecule, the “plateau SQ” value ([3]; compared with untreated control) was “significantly lower plateau SQ” and the growth rate ([3]; Kanamycin 50 μl/ml) was “around 0.24”.
